ChEMBL document CHEMBL1201862, “PubChem BioAssay data set” (2004)
The source made the active and inactive calls.

Key:
[1] = tested on: Escherichia coli; experiment: microbe, parasite or virus in culture
[2] = biological target: Glyceraldehyde-3-phosphate dehydrogenase (Homo sapiens, UniProt P04406)
[3] = biological target: T1, Alkaline phosphatase, tissue-nonspecific isozyme (Homo sapiens, UniProt P05186); experiment: human TNAP enzyme inhibitors, SAR follow-up, biochemical, luminescent, dose response (AID 1056)
T1 sequence (P05186 whole entry): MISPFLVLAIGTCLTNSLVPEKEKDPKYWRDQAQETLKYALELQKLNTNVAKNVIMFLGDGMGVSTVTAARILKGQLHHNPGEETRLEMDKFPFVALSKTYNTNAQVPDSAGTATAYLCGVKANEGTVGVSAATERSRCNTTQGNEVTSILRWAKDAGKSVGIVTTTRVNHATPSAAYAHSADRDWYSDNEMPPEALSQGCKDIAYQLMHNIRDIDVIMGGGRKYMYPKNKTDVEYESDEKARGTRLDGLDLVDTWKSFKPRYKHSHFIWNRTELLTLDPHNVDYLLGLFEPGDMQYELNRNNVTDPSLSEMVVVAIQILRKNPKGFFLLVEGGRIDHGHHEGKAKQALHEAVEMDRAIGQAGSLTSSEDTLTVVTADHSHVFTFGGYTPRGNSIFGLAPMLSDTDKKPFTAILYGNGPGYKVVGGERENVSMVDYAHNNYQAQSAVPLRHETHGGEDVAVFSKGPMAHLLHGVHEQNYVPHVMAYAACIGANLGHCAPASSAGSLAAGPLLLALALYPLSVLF

[4] = biological target: T2, Fructose-bisphosphate aldolase (Mycobacterium tuberculosis, UniProt P9WQA3); experiment: Fluorescence-based biochemical high throughput dose response assay for inhibitors of the fructose-bisphosphate aldolase (FBA) of M. tuberculosis.; type: functional
T2 sequence (P9WQA3 whole entry): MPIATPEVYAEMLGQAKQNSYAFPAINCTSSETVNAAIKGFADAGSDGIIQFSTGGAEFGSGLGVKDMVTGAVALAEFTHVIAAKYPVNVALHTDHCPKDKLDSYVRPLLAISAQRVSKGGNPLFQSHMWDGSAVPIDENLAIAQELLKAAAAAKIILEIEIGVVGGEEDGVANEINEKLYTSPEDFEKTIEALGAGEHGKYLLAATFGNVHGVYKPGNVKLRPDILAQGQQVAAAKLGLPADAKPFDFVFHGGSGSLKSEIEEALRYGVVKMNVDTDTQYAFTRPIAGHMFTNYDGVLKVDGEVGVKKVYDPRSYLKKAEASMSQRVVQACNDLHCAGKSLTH

[5] = biological target: T3, Low molecular weight phosphotyrosine protein phosphatase (Homo sapiens, UniProt P24666); type: functional; details: read-out: IC50_Mean;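 note: Dose-response confirmation assay measuring inhibition of LMPTP enzyme activity by fluorescence intensity read-out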
T3 sequence (P24666 whole entry): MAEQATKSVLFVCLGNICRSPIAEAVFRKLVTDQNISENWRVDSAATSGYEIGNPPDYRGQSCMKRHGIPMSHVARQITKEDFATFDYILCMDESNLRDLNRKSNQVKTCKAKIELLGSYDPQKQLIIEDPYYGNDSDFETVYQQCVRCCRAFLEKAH

[6] = cells; type: functional, cell-based
[7] = cells; type: functional, cell-based; remark: listed apart in the source
[8] = biological target: T4, Sentrin-specific protease 8 (Homo sapiens, UniProt Q96LD8); type: functional
T4 sequence (Q96LD8 whole entry): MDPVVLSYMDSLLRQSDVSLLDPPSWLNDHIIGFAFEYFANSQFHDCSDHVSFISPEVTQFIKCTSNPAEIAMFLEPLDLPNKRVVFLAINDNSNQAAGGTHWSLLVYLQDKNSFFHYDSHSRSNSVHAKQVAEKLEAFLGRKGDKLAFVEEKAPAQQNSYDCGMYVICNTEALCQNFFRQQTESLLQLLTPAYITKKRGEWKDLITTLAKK

[9] = biological target: T4, Sentrin-specific protease 8; type: functional; remark: listed apart in the source
[10] = biological target: T5, Small ubiquitin-related modifier 1 (Homo sapiens, UniProt P63165); experiment: inhibitors of SUMO1 peptide binding, dose response, biochemical, fluorescence polarization, uHTS hits (AID 624382); type: functional; details: read-out: IC50_Mean
T5 sequence (P63165 whole entry): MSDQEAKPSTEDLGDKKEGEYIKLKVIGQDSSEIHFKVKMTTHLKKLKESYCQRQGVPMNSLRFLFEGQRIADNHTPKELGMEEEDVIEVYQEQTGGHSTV

[11] = biological target: T5, Small ubiquitin-related modifier 1; experiment: inhibitors of SUMO1 partner interactions, dose response, biochemical, FRET (AID 624383); type: functional; details: read-out: IC50_Mean
[12] = growth suppression of PTEN-null colon cells, dose response, cell-based, HCT116 PTEN knockout (AID 1047); type: functional;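 note: HCT116 colon tumor cells with PTEN knocked out; cells exposed to compound for 60 hours before readout; potency for loss of cell viability measured by luminescence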
[13] = growth suppression of beta-catenin-knockout colon cells, dose response, cell-based, HCT116, human colon tumor (AID 1045); type: functional;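 note: HCT116 colon tumor cells with beta catenin knocked out; cells exposed to compound for 60 hours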
[14] = biological target: T6, Nuclear receptor subfamily 0 group B member 1 (Homo sapiens, UniProt P51843); type: functional, cell-based;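 note: HEK293T cells transfected with SF-1 and DAX-1 plus StAR promoter luciferase reporter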
T6 sequence (P51843 whole entry): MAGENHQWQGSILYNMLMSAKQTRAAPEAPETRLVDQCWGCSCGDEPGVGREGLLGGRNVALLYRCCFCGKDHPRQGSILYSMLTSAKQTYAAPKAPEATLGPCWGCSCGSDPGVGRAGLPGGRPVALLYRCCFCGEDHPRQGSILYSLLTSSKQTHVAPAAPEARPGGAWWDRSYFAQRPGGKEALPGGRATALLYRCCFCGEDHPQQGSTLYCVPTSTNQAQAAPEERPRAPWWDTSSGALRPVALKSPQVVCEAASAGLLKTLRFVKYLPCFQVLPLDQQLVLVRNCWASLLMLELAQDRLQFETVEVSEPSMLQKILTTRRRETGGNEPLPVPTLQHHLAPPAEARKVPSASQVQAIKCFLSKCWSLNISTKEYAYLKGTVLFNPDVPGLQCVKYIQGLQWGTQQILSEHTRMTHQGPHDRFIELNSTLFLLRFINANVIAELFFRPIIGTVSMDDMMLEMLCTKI

[15] = tested on: H4; experiment: Luminescence Cell-Based Dose Response HTS to Identify Activators of 5'UTR Stem-Loop Driven Prion Protein mRNA Translation in H4 Neuroglioblastoma Cells. [Related pubchem assays: 1829 (Project Summary), 1814 (Primary HTS)]; type: functional; details: Homo sapiens
[16] = cells; type: functional, cell-based; remark: listed apart in the source
[17] = ADAM10 inhibitors, peptide cleavage, dose response, biochemical, QFRET (AID 743254);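 note: ADAM10 enzyme with the DM2 quenched FRET peptide as substrate; EDANS fluorescence gain as the protease cuts the substrate; inhibitor potency against ADAM10 proteolytic activity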
[18] = biological target: Disintegrin and metalloproteinase domain-containing protein 17 (Homo sapiens, UniProt P78536); experiment: ADAM17 protease inhibitors, dose response, counter-screen for ADAM10 exosite inhibitor project, biochemical, quenched FRET substrate (AID 743253)
Sequence of Disintegrin and metalloproteinase domain-containing protein 17 (P78536 whole entry, the tested form may be a part): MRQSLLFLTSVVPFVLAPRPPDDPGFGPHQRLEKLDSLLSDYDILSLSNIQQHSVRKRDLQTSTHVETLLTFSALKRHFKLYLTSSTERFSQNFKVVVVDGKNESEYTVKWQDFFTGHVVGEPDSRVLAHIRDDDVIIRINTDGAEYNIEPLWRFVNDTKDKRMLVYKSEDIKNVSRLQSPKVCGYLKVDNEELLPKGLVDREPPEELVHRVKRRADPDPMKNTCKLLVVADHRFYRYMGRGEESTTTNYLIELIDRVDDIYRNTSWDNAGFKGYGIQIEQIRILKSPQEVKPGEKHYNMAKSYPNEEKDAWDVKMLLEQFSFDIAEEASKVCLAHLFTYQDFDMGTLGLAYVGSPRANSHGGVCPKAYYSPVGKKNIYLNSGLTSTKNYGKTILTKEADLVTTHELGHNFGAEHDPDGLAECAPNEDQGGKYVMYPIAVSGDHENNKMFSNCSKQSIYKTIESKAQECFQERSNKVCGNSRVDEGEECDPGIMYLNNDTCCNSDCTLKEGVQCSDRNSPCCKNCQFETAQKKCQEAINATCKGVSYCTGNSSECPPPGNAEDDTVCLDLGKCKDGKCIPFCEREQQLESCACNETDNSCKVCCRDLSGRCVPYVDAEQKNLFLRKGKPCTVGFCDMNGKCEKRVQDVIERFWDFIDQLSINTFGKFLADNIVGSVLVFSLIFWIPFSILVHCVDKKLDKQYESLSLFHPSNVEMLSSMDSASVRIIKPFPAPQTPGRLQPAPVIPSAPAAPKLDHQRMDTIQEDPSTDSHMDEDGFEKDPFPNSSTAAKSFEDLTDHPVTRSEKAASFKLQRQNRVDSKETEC

[19] = cells
[20] = Luminescence Cell-Based Dose Retest to Confirm Inhibitors of Cancer Stem Cells. [Related pubchem assays (depositor defined):AID2717, AID2721]; type: functional; details: Homo sapiens
[21] = biological target: T1, Alkaline phosphatase, tissue-nonspecific isozyme; experiment: TNAP enzyme inhibition by screening hits, dose response, selectivity assay for mouse IAP inhibitor project, biochemical, human TNAP, uHTS hits (AID 488906); type: functional
[22] = biological target: Intestinal-type alkaline phosphatase (Mus musculus, UniProt P24822); experiment: PubChem AID 488785; type: functional
Sequence of Intestinal-type alkaline phosphatase (Mus musculus, UniProt P24822) (P24822 whole entry): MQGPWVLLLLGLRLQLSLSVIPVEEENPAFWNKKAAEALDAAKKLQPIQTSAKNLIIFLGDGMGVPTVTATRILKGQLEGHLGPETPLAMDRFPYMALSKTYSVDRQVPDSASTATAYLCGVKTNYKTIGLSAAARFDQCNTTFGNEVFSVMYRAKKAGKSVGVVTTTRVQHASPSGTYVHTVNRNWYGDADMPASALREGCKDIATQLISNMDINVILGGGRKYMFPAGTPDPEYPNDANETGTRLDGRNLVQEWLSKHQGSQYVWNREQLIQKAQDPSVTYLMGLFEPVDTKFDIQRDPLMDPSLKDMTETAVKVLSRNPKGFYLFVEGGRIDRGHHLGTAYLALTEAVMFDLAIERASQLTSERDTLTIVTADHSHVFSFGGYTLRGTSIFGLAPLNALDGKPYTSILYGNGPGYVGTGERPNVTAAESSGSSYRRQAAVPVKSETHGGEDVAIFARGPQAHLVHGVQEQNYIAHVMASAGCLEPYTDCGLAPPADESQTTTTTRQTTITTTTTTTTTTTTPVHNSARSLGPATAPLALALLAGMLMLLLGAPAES

[23] = biological target: Intestinal-type alkaline phosphatase (Homo sapiens, UniProt P09923); experiment: inhibition of human intestinal alkaline phosphatase – biochemical, dose response (AID 488876); type: functional
Sequence of Intestinal-type alkaline phosphatase (Homo sapiens, UniProt P09923) (P09923 whole entry): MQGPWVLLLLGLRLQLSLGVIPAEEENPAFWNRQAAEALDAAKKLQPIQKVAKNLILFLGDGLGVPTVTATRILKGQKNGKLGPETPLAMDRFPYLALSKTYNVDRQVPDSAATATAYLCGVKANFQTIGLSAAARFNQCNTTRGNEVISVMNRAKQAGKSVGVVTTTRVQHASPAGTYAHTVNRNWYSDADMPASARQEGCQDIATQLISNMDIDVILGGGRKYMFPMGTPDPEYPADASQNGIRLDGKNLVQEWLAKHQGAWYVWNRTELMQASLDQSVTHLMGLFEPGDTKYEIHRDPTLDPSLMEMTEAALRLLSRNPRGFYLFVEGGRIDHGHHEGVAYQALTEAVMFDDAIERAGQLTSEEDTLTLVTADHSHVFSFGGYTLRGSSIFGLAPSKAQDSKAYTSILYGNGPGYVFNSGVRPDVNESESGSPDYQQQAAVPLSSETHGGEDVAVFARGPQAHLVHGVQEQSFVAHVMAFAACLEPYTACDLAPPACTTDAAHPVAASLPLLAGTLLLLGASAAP

[24] = biological target: T7, Sentrin-specific protease 6 (Homo sapiens, UniProt Q9GZR1); experiment: SAR Analysis of small molecule inhibitors of Sentrin-specific protease 6 (SENP6) using a Luminescent assay. [Related pubchem assays (depositor defined):AID2582, AID2599]; type: functional
T7 sequence (Q9GZR1 whole entry): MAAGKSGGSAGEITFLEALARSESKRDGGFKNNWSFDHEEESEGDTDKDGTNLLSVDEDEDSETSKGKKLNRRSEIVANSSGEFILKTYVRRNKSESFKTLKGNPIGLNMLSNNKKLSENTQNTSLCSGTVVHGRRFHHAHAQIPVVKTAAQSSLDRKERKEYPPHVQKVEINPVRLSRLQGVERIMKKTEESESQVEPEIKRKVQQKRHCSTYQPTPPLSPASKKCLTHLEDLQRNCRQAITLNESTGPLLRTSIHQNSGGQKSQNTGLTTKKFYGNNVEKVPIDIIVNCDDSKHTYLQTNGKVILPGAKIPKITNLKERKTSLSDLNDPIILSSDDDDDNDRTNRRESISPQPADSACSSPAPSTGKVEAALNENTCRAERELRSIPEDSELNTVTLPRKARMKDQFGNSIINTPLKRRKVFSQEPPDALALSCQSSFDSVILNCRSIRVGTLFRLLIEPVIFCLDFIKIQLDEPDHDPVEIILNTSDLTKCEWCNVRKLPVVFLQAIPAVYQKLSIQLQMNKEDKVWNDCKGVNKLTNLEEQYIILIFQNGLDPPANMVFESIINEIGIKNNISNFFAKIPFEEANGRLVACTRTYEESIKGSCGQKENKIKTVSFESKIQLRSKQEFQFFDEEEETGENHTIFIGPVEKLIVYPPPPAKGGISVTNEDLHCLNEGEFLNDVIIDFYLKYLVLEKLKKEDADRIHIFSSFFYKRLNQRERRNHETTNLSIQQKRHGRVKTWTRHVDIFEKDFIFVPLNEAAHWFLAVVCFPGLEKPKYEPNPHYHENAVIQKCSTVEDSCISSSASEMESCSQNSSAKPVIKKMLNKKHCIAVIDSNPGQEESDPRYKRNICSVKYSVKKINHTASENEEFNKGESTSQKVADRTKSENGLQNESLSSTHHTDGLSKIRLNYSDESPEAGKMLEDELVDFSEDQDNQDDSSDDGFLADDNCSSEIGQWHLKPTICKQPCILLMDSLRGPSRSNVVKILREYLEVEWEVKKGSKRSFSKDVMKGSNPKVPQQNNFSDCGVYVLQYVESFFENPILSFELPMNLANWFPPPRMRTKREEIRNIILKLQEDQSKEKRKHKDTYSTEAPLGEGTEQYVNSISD

[25] = biological target: T8, Caspase-3 (Homo sapiens, UniProt P42574); experiment: SAR Analysis of small molecule inhibitors of Sentrin-specific proteases (SENPs) using a Caspase-3 Selectivity assay. [Related pubchem assays (depositor defined):AID2540, AID2599, AID434973, AID489001]; type: functional
T8 sequence (P42574 whole entry): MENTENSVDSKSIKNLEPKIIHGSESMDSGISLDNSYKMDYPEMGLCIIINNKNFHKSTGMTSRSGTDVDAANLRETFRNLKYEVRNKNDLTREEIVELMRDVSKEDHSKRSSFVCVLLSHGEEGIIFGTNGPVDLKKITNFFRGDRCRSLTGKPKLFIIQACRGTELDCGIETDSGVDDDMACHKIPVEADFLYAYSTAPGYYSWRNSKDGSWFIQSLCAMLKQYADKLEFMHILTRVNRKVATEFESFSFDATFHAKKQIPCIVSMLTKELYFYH

[26] = biological target: T4, Sentrin-specific protease 8; experiment: SENP8 protease inhibitors, SAR follow-up, biochemical, luminescence (AID 504501); type: functional
[27] = biological target: Paired box protein Pax-8 (Homo sapiens, UniProt Q06710); experiment: inhibitors of PAX8-driven TPO luciferase reporter, dose response, RMG-I cells, cherry-pick (AID 687027); type: functional, cell-based;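 note: luciferase reporter driven by Pax8 target thyroperoxidase promoter measured by SteadyGlo luminescence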
Sequence of Paired box protein Pax-8 (Q06710 whole entry): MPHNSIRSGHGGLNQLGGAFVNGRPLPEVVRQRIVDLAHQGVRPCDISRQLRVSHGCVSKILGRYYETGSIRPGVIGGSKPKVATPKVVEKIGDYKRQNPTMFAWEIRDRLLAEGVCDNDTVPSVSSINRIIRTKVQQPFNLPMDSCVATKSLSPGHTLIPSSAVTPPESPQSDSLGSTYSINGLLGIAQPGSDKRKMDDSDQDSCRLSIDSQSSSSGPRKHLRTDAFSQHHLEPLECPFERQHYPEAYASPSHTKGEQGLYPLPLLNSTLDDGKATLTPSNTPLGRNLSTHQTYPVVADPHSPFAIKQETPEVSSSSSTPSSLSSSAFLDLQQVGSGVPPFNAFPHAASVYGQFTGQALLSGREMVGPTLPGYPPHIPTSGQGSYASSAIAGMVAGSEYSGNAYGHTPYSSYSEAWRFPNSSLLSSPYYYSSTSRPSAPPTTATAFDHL

[28] = non-specific cell cytotoxicity, dose response, cytotoxicity control for PAX8 inhibitor project, plate reader, dry powder samples (AID 743021); type: functional, cell-based

Sequence of Glyceraldehyde-3-phosphate dehydrogenase (P04406 whole entry): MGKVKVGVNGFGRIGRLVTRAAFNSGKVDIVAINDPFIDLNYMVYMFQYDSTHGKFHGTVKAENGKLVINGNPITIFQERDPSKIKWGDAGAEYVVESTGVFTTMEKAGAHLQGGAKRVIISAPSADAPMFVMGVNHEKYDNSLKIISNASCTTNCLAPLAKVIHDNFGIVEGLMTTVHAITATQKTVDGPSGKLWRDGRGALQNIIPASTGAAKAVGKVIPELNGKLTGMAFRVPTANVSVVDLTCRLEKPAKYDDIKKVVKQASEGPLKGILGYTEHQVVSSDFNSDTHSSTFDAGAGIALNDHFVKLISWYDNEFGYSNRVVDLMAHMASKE

SMILES: COc1ccc(/C=C(/NC(=O)c2cccc([N+](=O)[O-])c2)C(=O)O)cc1OC
- AC50 [1]: 18.5 µM (active)

SMILES: COc1ccc(-c2nnc3oc(O)cc(C)c2-3)cc1
- IC50 [2]: > 100 µM (not active)
- IC50 [3]: 1.06 µM (active)
- IC50 [4]: 1.88 µM (active)

SMILES: Cc1cc(N2CCN(C(C(=O)NC3CCCC3)c3ccc(-c4ccccc4)cc3)CC2)c2ccccc2n1 (stereo unspecified)
- IC50 [5]: 6.49 µM (active)

SMILES: CCc1cc(Cl)c(OC)c(C(=O)NC[C@@H]2CCCN2CC)c1O
- AC50 [1]: 19.4 µM (active)

SMILES: Cc1ccc(-c2nc3ccccc3nc2NN)cc1
- EC50 [6]: > 350 µM (not active)
- EC50 [7]: 7.52 µM (active)
- IC50 [4]: > 10 µM (inactive)

SMILES: CCOC(=O)c1ccc(N2C(=O)Cc3ccccc3C2=O)cc1
- IC50 [8]: > 100 µM (inactive)
- IC50 [9]: 12 µM (active)

SMILES: COc1c(F)c(F)cc2c(=O)c(C(=O)O)cn(C3CC3)c12
- AC50 [1]: 3.88 µM (active)

SMILES: CC(=O)c1ccc(-n2nnnc2SCC(=O)N2CCc3ccccc3C2)cc1
- IC50 [8]: 10.2 µM (active)
- IC50 [9]: 8.03 µM (active)

SMILES: O=C(Nc1ccc2c(c1)C(=O)NC2=O)c1ccc2ncsc2c1
- IC50 [10]: > 66.6 µM (inactive)
- IC50 [11]: 8.45 µM (active)

SMILES: CCOC(=O)c1oc2cccc(OCC(O)CNC(C)C)c2c1C (stereo unspecified)
- EC50 [12]: 45.6 µM (active)
- EC50 [13]: 47.7 µM (active)
- IC50 [4]: 0.843 µM (active)

SMILES: O=C(/N=c1\nc2ccccn2s1)c1ccccc1
- IC50 [14]: > 67.5 µM (inactive)
- EC50 [15]: 5.73 µM (active)
- IC50 [16]: > 67.5 µM (inactive)

SMILES: COc1ccc(-c2c[nH]nc2-c2ccc(OCc3ccccc3)cc2O)cc1OC
- IC50 [17]: > 69.5 µM (inactive)
- IC50 [18]: > 69.5 µM (inactive)

SMILES: CC(=O)CSc1nc(O)c(C#N)c(-c2cccs2)n1
- IC50 [19]: > 138 µM (inactive)

SMILES: Cc1cccc(OCCNC(=O)c2cccc(Oc3ccc(C(F)(F)F)cc3[N+](=O)[O-])c2)c1
- IC50 [17]: 27.5 µM (inactive)
- IC50 [18]: > 69.5 µM (inactive)
- AC50 [20]: 23.5 µM (active)

SMILES: O=C(NC1CCCCC1)Oc1cc2oc(=O)sc2cc1Cl
- IC50 [21]: 11.8 µM (active)
- IC50 [22]: 3.78 µM (active)
- IC50 [23]: 3.54 µM (active)

SMILES: COC(=O)c1ccc(NC(=O)c2ccc3c(c2)OCO3)cc1
- IC50 [24]: > 99 µM (inactive)
- IC50 [25]: 3.7 µM (active)
- IC50 [26]: > 99 µM (inactive)

SMILES: Cc1ccc(S(=O)(=O)Nc2ccc3c(c2)CC(=O)N([C@@H](C)CO)C[C@H](C)[C@@H](CN(C)C(=O)Nc2ccc(C(F)(F)F)cc2)O3)cc1
- AC50 [27]: 30.4 µM (active)
- AC50 [28]: 43.1 µM (active)
